Assay results as given in BigSolDB 2.1.

solubility (mole fraction) (in THF, 296 K) | solubility (mole fraction) (in THF, 310 K) | solubility (mole fraction) (in acetonitrile, 296 K) | solubility (mole fraction) (in acetonitrile, 310 K) | solubility (mole fraction) (in ethanol, 296 K) | solubility (mole fraction) (in ethanol, 310 K) | solubility (mole fraction) (in isopropanol, 296 K) | solubility (mole fraction) (in isopropanol, 310 K) | solubility (mole fraction) (in methanol, 296 K) | solubility (mole fraction) (in methanol, 310 K) | solubility (mole fraction) (in n-propanol, 296 K) | solubility (mole fraction) (in n-propanol, 310 K) | solubility (mole fraction) (in acetone, 296 K) | solubility (mole fraction) (in acetone, 310 K) | SMILES
0.00249 | 0.00393 | 4.44e-05 | 6.46e-05 | 0.00102 | 0.00126 | 0.00168 | 0.0015 | 0.000523 | 0.000656 | 0.00178 | 0.00256 | – | – | C[C@]12CC[C@H](O)CC1=CC[C@@H]1[C@@H]2CC[C@]2(C)C(c3cccnc3)=CC[C@@H]12
– | – | 0.0021 | 0.0027 | 0.0111 | 0.0127 | 0.0133 | 0.0145 | 0.00544 | 0.00648 | 0.0242 | 0.0279 | 0.0128 | 0.0181 | CC(=O)O[C@H]1CC[C@@]2(C)C(=CC[C@@H]3[C@@H]2CC[C@]2(C)C(c4cccnc4)=CC[C@@H]32)C1
